Several values for one entry are separate records, joined by “and”; a condition that tells them apart may be missing. Equal values may be shown once.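 Where inhibition never reached the appropriate level, the endpoint shown equals the highest concentration tested. Otherwise, values were interpolated linearly from a five-concentration, 48-hour dose response in 96-well plates. GI50 = concentration required for 50% inhibition of growth. At the TGI there is no net growth.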
Tests used:
[1] = system: P388/ADR leukemia; assay: NCI tumour cell line growth inhibition, 48 h
[2] = system: P388 leukemia; assay: NCI tumour cell line growth inhibition, 48 h

Structure (SMILES)	TGI [1]	TGI [2]	GI50 [2] [µM]
NC(CSC(c1ccccc1)(c1ccccc1)c1ccccc1)C(=O)O (stereo not given)	125 µM	38.8 µM	–
CCC/C=C/C=C/C(=O)OC1/C(=C/C(=O)OC)CC2CC(C(C)O)OC(=O)CC(O)CC3CC(OC(C)=O)C(C)(C)C(O)(CC4C/C(=C/C(=O)OC)CC(/C=C/C(C)(C)C1(O)O2)O4)O3 (stereo not given)	10.9 µM and 11 µM	10.9 µM and 11 µM	9.73

Source: PubChem BioAssay (NCI)
